A word on the IC50: it is the concentration that gives 50% inhibition. Read a high IC50 as weaker potency.

Chain of Human factor D (P00746 26-253): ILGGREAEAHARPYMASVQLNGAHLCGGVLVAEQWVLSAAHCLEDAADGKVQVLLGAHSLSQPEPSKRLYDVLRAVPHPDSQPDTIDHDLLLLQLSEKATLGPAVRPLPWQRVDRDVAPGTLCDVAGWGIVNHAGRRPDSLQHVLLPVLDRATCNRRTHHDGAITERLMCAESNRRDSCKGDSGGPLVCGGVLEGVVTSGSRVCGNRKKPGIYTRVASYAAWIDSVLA

The first experiment addresses Human factor D (Homo sapiens (Human), UniProt P00746). The experiment is described as follows: Human Factor D Assay. The format is biochemical.
Conditions: not given
The method, then:
Human factor D (purified from human serum, Complement Technology, Inc.) at 80 nM final concentration is incubated with test compound at various concentrations for 5 minutes at room temperature in 50 mM Tris, 1M NaCl, pH 7.5. A synthetic substrate Z-L-Lys-SBzl and DTNB (Ellman's reagent) are added to final concentrations of 100 μM each. The increase in color is recorded at OD405 nm in a microplate in kinetic mode over 30 minutes with 30 second time points in a spectrofluorimeter. IC50 values are calculated by non-linear regression from the percentage of inhibition of complement factor D activity as a function of test compound concentration.
With `CCN1Cc2ccc(NC(=O)[C@@H]3C[C@@H](F)CN3C(=O)Cn3cc(C(C)=O)c4cc(-c5ccnnc5)ccc43)cc2C1=O` [Compound 49, (2S,4R)-1-(2-(3-acetyl-5-(pyridazin-4-yl)-1H-indol-1-yl)acetyl)-N-(2-ethyl-3-oxoisoindolin-5-yl)-4-fluoropyrrolidine-2-carboxamide], the IC50 lay in the range of 1 to 10 µM.

Molecule `CC(=O)c1cn(CC(=O)N2C[C@H](F)C[C@H]2C(=O)NCc2cccnc2)c2ccc(-c3ccnnc3)cc12` [Compound 59, (2S,4R)-1-(2-(3-acetyl-5-(pyridazin-4-yl)-1H-indol-1-yl)acetyl)-4-fluoro-N-(pyridin-3-ylmethyl)pyrrolidine-2-carboxamide] had an IC50 of 1 to 10 µM.

Still in this experiment, the particulars now being: human factor D 80 nM, substrate Z-L-Lys-SBzl, DTNB.
`CCN1Cc2ccc(NC(=O)[C@@H]3C[C@@H](F)CN3C(=O)Cn3nc(C(N)=O)c4cc(-c5ccnnc5)ccc43)cc2C1=O` [Compound 48, 1-(2-((2S,4R)-2-(2-ethyl-3-oxoisoindolin-5-ylcarbamoyl)-4-fluoropyrrolidin-1-yl)-2-oxoethyl)-5-(pyridazin-4-yl)-1H-indazole-3-carboxamide] had a half-maximal inhibitory concentration (IC50) greater than 10 µM.

As to `NC(=O)c1nn(CC(=O)N2C[C@H](F)C[C@H]2C(=O)Nc2ccc3ncsc3c2)c2ccc(-c3ccnnc3)cc12` [Compound 50, 1-(2-((2S,4R)-2-(benzo[d]thiazol-6-ylcarbamoyl)-4-fluoropyrrolidin-1-yl)-2-oxoethyl)-5-(pyridazin-4-yl)-1H-indazole-3-carboxamide], the concentration for half-maximal inhibition (IC50) is greater than 10 µM.

As for `NC(=O)c1nn(CC(=O)N2C[C@H](F)C[C@H]2C(=O)N[C@@H]2CCC[C@@H]2OCc2ccccc2)c2ccc(-c3ccnnc3)cc12` [Compound 51, 1-(2-((2S,4R)-2-((1R,2S)-2-(benzyloxy)cyclopentylcarbamoyl)-4-fluoropyrrolidin-1-yl)-2-oxoethyl)-5-(pyridazin-4-yl)-1H-indazole-3-carboxamide], the IC50 is greater than 10 µM.

As for `NC(=O)c1nn(CC(=O)N2C[C@H](F)C[C@H]2C(=O)NCc2nc3ccccc3s2)c2ccc(-c3ccnnc3)cc12` [Compound 52, 1-(2-((2S,4R)-2-(benzo[d]thiazol-2-ylmethylcarbamoyl)-4-fluoropyrrolidin-1-yl)-2-oxoethyl)-5-(pyridazin-4-yl)-1H-indazole-3-carboxamide], the IC50 is greater than 10 µM.

Molecule `CC(=O)c1cn(CC(=O)N2C[C@H](F)C[C@H]2C(=O)Nc2nc(-c3ccc4c(c3)CCCC4)cs2)c2ccc(-c3ccnnc3)cc12` [Compound 54, (2S,4R)-1-(2-(3-acetyl-5-(pyridazin-4-yl)-1H-indol-1-yl)acetyl)-4-fluoro-N-(4-(5,6,7,8-tetrahydronaphthalen-2-yl)thiazol-2-yl)pyrrolidine-2-carboxamide] showed a half-maximal inhibitory concentration (IC50) greater than 10 µM.

`NC(=O)c1nn(CC(=O)N2C[C@H](F)C[C@H]2C(=O)Nc2nc(-c3ccc4c(c3)CCCC4)cs2)c2ccc(-c3ccnnc3)cc12` [Compound 55, 1-(2-((2S,4R)-4-fluoro-2-(4-(5,6,7,8-tetrahydronaphthalen-2-yl)thiazol-2-ylcarbamoyl)pyrrolidin-1-yl)-2-oxoethyl)-5-(pyridazin-4-yl)-1H-indazole-3-carboxamide] yielded an IC50 greater than 10 µM.

With `CC(=O)c1cn(CC(=O)N2C[C@H](F)C[C@H]2C(=O)Nc2nc(-c3c(C)nc4sccn34)cs2)c2ccc(-c3ccnnc3)cc12` [Compound 57, (2S,4R)-1-(2-(3-acetyl-5-(pyridazin-4-yl)-1H-indol-1-yl)acetyl)-4-fluoro-N-(4-(6-methylimidazo[2,1-b]thiazol-5-yl)thiazol-2-yl)pyrrolidine-2-carboxamide], the IC50 is greater than 10 µM.

Take `CC(=O)c1cn(CC(=O)N2C[C@H](F)C[C@H]2C(=O)Nc2ccc(CNC(=O)OCC3c4ccccc4-c4ccccc43)cc2)c2ccc(-c3ccnnc3)cc12` [Compound 61]: the IC50 is greater than 10 µM.

The molecule `NC(=O)c1nn(CC(=O)N2C[C@H](F)C[C@H]2C(=O)NCc2cc(F)cc(Cl)c2)c2ccc(-c3ccnnc3)cc12` [Compound 62, 1-(2-((2S,4R)-2-(3-chloro-5-fluorobenzylcarbamoyl)-4-fluoropyrrolidin-1-yl)-2-oxoethyl)-5-(pyridazin-4-yl)-1H-indazole-3-carboxamide] returned an IC50 of less than 1 µM.

Molecule `CC(=O)c1cn(CC(=O)N2C[C@H](F)C[C@H]2C(=O)Nc2ccccc2N2CCOC2=O)c2ccc(-c3ccnnc3)cc12` [Compound 64, (2S,4R)-1-(2-(3-acetyl-5-(pyridazin-4-yl)-1H-indol-1-yl)acetyl)-4-fluoro-N-(2-(2-oxooxazolidin-3-yl)phenyl)pyrrolidine-2-carboxamide] registered an IC50 greater than 10 µM.

On to `NC(=O)c1nn(CC(=O)N2C[C@H](F)C[C@H]2C(=O)Nc2ccccc2N2CCOC2=O)c2ccc(-c3ccnnc3)cc12` [Compound 65, 1-(2-((2S,4R)-4-fluoro-2-(2-(2-oxooxazolidin-3-yl)phenylcarbamoyl)pyrrolidin-1-yl)-2-oxoethyl)-5-(pyridazin-4-yl)-1H-indazole-3-carboxamide], for which the IC50 is greater than 10 µM.

`CC(=O)c1cn(CC(=O)N2C[C@H](F)C[C@H]2C(=O)Nc2cncc(Cl)c2)c2ccc(-c3ccnnc3)cc12` [Compound 66, (2S,4R)-1-(2-(3-acetyl-5-(pyridazin-4-yl)-1H-indol-1-yl)acetyl)-N-(5-chloropyridin-3-yl)-4-fluoropyrrolidine-2-carboxamide]: the IC50 was less than 1 µM.

Molecule `CC(=O)c1cn(CC(=O)N2C[C@H](F)C[C@H]2C(=O)Nc2cncc(Br)c2)c2ccc(-c3ccnnc3)cc12` [Compound 68, (2S,4R)-1-(2-(3-acetyl-5-(pyridazin-4-yl)-1H-indol-1-yl)acetyl)-N-(5-bromopyridin-3-yl)-4-fluoropyrrolidine-2-carboxamide] came in with an IC50 of less than 1 µM.

As for `NC(=O)c1nn(CC(=O)N2C[C@H](F)C[C@H]2C(=O)Nc2nnc(-c3ccc(Cl)c(Cl)c3)s2)c2ccc(-c3ccnnc3)cc12` [Compound 69, 1-(2-((2S,4R)-2-(5-(3,4-dichlorophenyl)-1,3,4-thiadiazol-2-ylcarbamoyl)-4-fluoropyrrolidin-1-yl)-2-oxoethyl)-5-(pyridazin-4-yl)-1H-indazole-3-carboxamide], the concentration for half-maximal inhibition (IC50) is greater than 10 µM.

In turn, `NCc1ccc(NC(=O)[C@@H]2C[C@@H](F)CN2C(=O)Cn2nc(C(N)=O)c3cc(-c4ccnnc4)ccc32)cc1` [Compound 70, 1-(2-((2S,4R)-2-(4-(aminomethyl)phenylcarbamoyl)-4-fluoropyrrolidin-1-yl)-2-oxoethyl)-5-(pyridazin-4-yl)-1H-indazole-3-carboxamide] yielded an IC50 greater than 10 µM.

With `Cc1ccnn1-c1ccccc1NC(=O)[C@@H]1C[C@@H](F)CN1C(=O)Cn1nc(C(N)=O)c2cc(-c3ccnnc3)ccc21` [Compound 71, 1-(2-((2S,4R)-4-fluoro-2-(2-(5-methyl-1H-pyrazol-1-yl)phenylcarbamoyl)pyrrolidin-1-yl)-2-oxoethyl)-5-(pyridazin-4-yl)-1H-indazole-3-carboxamide], the IC50 is greater than 10 µM.

As to `CC(=O)c1cn(CC(=O)N2C[C@H](F)C[C@H]2C(=O)Nc2ccccc2-n2nccc2C)c2ccc(-c3ccnnc3)cc12` [Compound 72, (2S,4R)-1-(2-(3-acetyl-5-(pyridazin-4-yl)-1H-indol-1-yl)acetyl)-4-fluoro-N-(2-(5-methyl-1H-pyrazol-1-yl)phenyl)pyrrolidine-2-carboxamide], the IC50 was greater than 10 µM.

`NC(=O)c1nn(CC(=O)N2C[C@H](F)C[C@H]2C(=O)Nc2cccc(OCc3ccccc3)n2)c2ccc(-c3ccnnc3)cc12` [Compound 73, 1-(2-((2S,4R)-2-(6-(benzyloxy)pyridin-2-ylcarbamoyl)-4-fluoropyrrolidin-1-yl)-2-oxoethyl)-5-(pyridazin-4-yl)-1H-indazole-3-carboxamide]: the IC50 was greater than 10 µM.

Consider `CC(=O)c1cn(CC(=O)N2C[C@H](F)C[C@H]2C(=O)N[C@H]2CCCC[C@@H]2OCc2ccccc2)c2ccc(-c3ccnnc3)cc12` [Compound 74, (2S,4R)-1-(2-(3-acetyl-5-(pyridazin-4-yl)-1H-indol-1-yl)acetyl)-N-((1S,2S)-2-(benzyloxy)cyclohexyl)-4-fluoropyrrolidine-2-carboxamide], for which the IC50 was greater than 10 µM.

`CC(=O)c1cn(CC(=O)N2C[C@H](F)C[C@H]2C(=O)Nc2ccc3c(c2)OC(C)(C)C3)c2ccc(-c3ccnnc3)cc12` [Compound 75, (2S,4R)-1-(2-(3-acetyl-5-(pyridazin-4-yl)-1H-indol-1-yl)acetyl)-N-(2,2-dimethyl-2,3-dihydrobenzofuran-6-yl)-4-fluoropyrrolidine-2-carboxamide] displayed an IC50 of less than 1 µM.

The molecule `CC1(C)Cc2ccc(NC(=O)[C@@H]3C[C@@H](F)CN3C(=O)Cn3nc(C(N)=O)c4cc(-c5ccnnc5)ccc43)cc2O1` [Compound 76, 1-(2-((2S,4R)-2-(2,2-dimethyl-2,3-dihydrobenzofuran-6-ylcarbamoyl)-4-fluoropyrrolidin-1-yl)-2-oxoethyl)-5-(pyridazin-4-yl)-1H-indazole-3-carboxamide] yielded an IC50 of less than 1 µM.

`CC(=O)c1cn(CC(=O)N2C[C@H](F)C[C@H]2C(=O)N[C@H]2CCC[C@@H]2OCc2ccccc2)c2ccc(-c3ccnnc3)cc12` [Compound 77, (2S,4R)-1-(2-(3-acetyl-5-(pyridazin-4-yl)-1H-indol-1-yl)acetyl)-N-((1S,2S)-2-(benzyloxy)cyclopentyl)-4-fluoropyrrolidine-2-carboxamide] yielded a concentration for half-maximal inhibition (IC50) greater than 10 µM.

`NC(=O)c1nn(CC(=O)N2C[C@H](F)C[C@H]2C(=O)N[C@H]2CCCC[C@@H]2OCc2ccccc2)c2ccc(-c3ccnnc3)cc12` [Compound 78] gave an IC50 greater than 10 µM.

Consider `CNC(=O)[C@@H]1C[C@@H](F)CN1C(=O)Cn1nc(C(N)=O)c2cc(-c3ccnnc3)ccc21` [Compound 79, 1-(2-((2S,4R)-4-fluoro-2-(methylcarbamoyl)pyrrolidin-1-yl)-2-oxoethyl)-5-(pyridazin-4-yl)-1H-indazole-3-carboxamide], for which the IC50 was greater than 10 µM.

These data come from patent US9796741B2 (Achillion Pharmaceuticals, Inc., priority 2014, dated 2017).
